System: 233499-124-R-J3-PDC spheroids with HUVEC/MSC, viability
Experiment: Anticancer human tumor 233499-124-R-J3-PDC patient-derived colon adenocarcinoma cell line growth inhibition [PI3K]
Settings: for IC50: curve of first compound; for viability, T/C: stronger effect = lower value; active means viability on the fitted dose curve at most 10% of control; inactive means the rest
Excerpt: Combinatorial screen of targeted agents with the PI3K inhibitors inavolisib, alpelisib, duvelisib, and copanlisib in multi-cell type tumor spheroids
A high-throughput screen of multi-cell type tumor spheroids was designed to identify active combinations of targeted small molecules and PI3K pathway inhibitors. Complex spheroids include a stromal component modeled by human endothelial cells (HUVEC) and fibroblasts modeled by human mesenchymal stem cells (MSCs). The concentration ranges selected for each drug and investigational agent were based upon clinically achievable concentrations if the clinical Cmax of the agent was known.
Compounds. The drugs and investigational agents: inavolisib (NSC800729), alpelisib (NSC765974), duvelisib (NSC772469), copanlisib (NSC816437), ipatasertib (NSC767898), afuresertib (NSC778305), talazoparib (NSC767125), sapanisertib (NSC764658), selumetinib (NSC741078), tovorafenib (DAY101, NSC766906), vemurafenib (NSC761431), ravoxertinib (NSC781343), sotorasib (NSC818433), MRTX1133 (NSC 836407), abemaciclib (NSC 768073), palbociclib (NSC758247), venetoclax (NSC 766270), SY5609 (NSC837396), enzalutamide (NSC755605), and darolutamide (NSC825331), were obtained from the National Cancer Institute (NCI) Developmental Therapeutics Program Chemical Repository. The FDA-approved anticancer drug set is available from the NCI Developmental Therapeutics Program. […] The stock solutions were prepared in dimethyl sulfoxide (DMSO, Sigma-Aldrich, St. Louis, MO, cat. D2650) at 800-fold the tested concentration and stored at -70 degrees C prior to their use. All drugs and investigational agents were tested over a range starting from a high concentration at or near the clinical Cmax and decreasing in half-log increments. If the clinical Cmax for an agent had not been determined, the highest concentration tested was 10 microM.
Cell Culture. All cells were maintained in an incubator at 37 degrees C and 5% CO2 with 95% humidity. The PDC lines were cultured according to standard operating procedures established by the NCI PDMR (https://pdmr.cancer.gov/sops/default.htm). All PDCs were thawed and cultured in Matrigel-coated flasks prepared with a working solution of 1X Ham's F-12 nutrient mix, without supplementation (Invitrogen, Waltham, MA, cat. 11765054), 100 U/mL penicillin-streptomycin (Invitrogen, cat. 15140122), and 2.5% Matrigel (Corning Inc., Corning, NY, cat. 354248) for the first three passages. The 354836-022-R-J1-PDC, 475296-252-R-J1-PDC, and 997726-040-R-J2-PDC lines were cultured in 6A media, which includes advanced DMEM/F-12 (Thermo Fisher Scientific, cat. 12634028), 10 mM HEPES (Thermo Fisher Scientific, cat. 15630080), 1X GlutaMAX supplement (Thermo Fisher Scientific, cat. 35050061), 0.1 mg/mL primocin (InvivoGen, San Diego, CA, cat. ant-pm-2), 10% defined fetal bovine serum, heat inactivated (HyClone Laboratories Inc., Logan, UT, cat. SH30070.03HI), 50% L-WRN conditioned media (ATCC, cat. CRL-3276), 1.25 mM N-Acetyl-L-cysteine (Sigma-Aldrich, cat. A9165), 10 mM nicotinamide (Sigma-Aldrich, cat. N0636), 1X B-27 supplement (Thermo Fisher Scientific, cat. 17504044), 1X N-2 supplement (Thermo Fisher Scientific, cat. 17502048), and 10 microM Y-27632 dihydrochloride (Tocris Bioscience, Bristol, United Kingdom, cat. 1254). The 624824-186-R-J2-PDC line was cultured in 6C/Colon 1B media, which includes all 6A media components plus 50 ng/mL human EGF recombinant protein (Thermo Fisher Scientific, cat. PHG0311). […]

[1] = second compound 0.00316 µM, first compound 0.0316 µM
[2] = second compound 0.00316 µM, first compound 0.1 µM
[3] = second compound 0.01 µM, first compound 0.0316 µM
[4] = second compound 0.01 µM, first compound 0.1 µM
[5] = second compound 0.0316 µM, first compound 0.0316 µM
[6] = second compound 0.0316 µM, first compound 0.1 µM
[7] = second compound 0.1 µM, first compound 0.0316 µM
[8] = second compound 0.1 µM, first compound 0.1 µM
[9] = second compound 0.316 µM, first compound 0.0316 µM
[10] = second compound 0.316 µM, first compound 0.1 µM
[11] = second compound 1 µM, first compound 0.0316 µM
[12] = second compound 1 µM, first compound 0.1 µM
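Further: spheroids exposed to agents for seven days before readout.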
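Wherever viability, T/C is given: percent viability relative to DMSO vehicle control taken as 100%.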

C[C@@H](NC(=O)c1ncnc(N)c1Cl)c1ncc(C(=O)Nc2cc(C(F)(F)F)c(Cl)cn2)s1 + CC(Nc1ccc2c(c1)OCCn1cc(N3C(=O)OCC3C(F)F)nc1-2)C(N)=O
> 10000 nM: IC50 (second compound 0.00316 µM) | IC50 (second compound 0.01 µM) | IC50 (second compound 0.0316 µM) | IC50 (second compound 0.1 µM) | IC50 (second compound 0.316 µM) | IC50 (second compound 1 µM)
inactive: viability, T/C [1] 102% | viability, T/C [2] 112% | viability, T/C (second compound 0.00316 µM, first compound 0.316 µM) 113% | viability, T/C (second compound 0.00316 µM, first compound 1 µM) 105% | viability, T/C (second compound 0.00316 µM, first compound 3.16 µM) 126% | viability, T/C (second compound 0.00316 µM, first compound 10 µM) 90.5% | viability, T/C [3] 113% | viability, T/C [4] 119% | viability, T/C (second compound 0.01 µM, first compound 0.316 µM) 130% | viability, T/C (second compound 0.01 µM, first compound 1 µM) 105% | viability, T/C (second compound 0.01 µM, first compound 3.16 µM) 111% | viability, T/C (second compound 0.01 µM, first compound 10 µM) 102% | viability, T/C [5] 99.4% | viability, T/C [6] 119% | viability, T/C (second compound 0.0316 µM, first compound 0.316 µM) 109% | viability, T/C (second compound 0.0316 µM, first compound 1 µM) 98.6% | viability, T/C (second compound 0.0316 µM, first compound 3.16 µM) 113% | viability, T/C (second compound 0.0316 µM, first compound 10 µM) 74.5% | viability, T/C [7] 87.2% | viability, T/C [8] 84.6% | viability, T/C (second compound 0.1 µM, first compound 0.316 µM) 108% | viability, T/C (second compound 0.1 µM, first compound 1 µM) 106% | viability, T/C (second compound 0.1 µM, first compound 3.16 µM) 102% | viability, T/C (second compound 0.1 µM, first compound 10 µM) 92% | viability, T/C [9] 82.8% | viability, T/C [10] 81.2% | viability, T/C (second compound 0.316 µM, first compound 0.316 µM) 85.6% | viability, T/C (second compound 0.316 µM, first compound 1 µM) 95.2% | viability, T/C (second compound 0.316 µM, first compound 3.16 µM) 102% | viability, T/C (second compound 0.316 µM, first compound 10 µM) 65.8% | viability, T/C [11] 53.5% | viability, T/C [12] 68.5% | viability, T/C (second compound 1 µM, first compound 0.316 µM) 52.5% | viability, T/C (second compound 1 µM, first compound 1 µM) 83% | viability, T/C (second compound 1 µM, first compound 3.16 µM) 77.2% | viability, T/C (second compound 1 µM, first compound 10 µM) 56.6%

Cn1ncnc1[C@H]1c2n[nH]c(=O)c3cc(F)cc(c23)N[C@@H]1c1ccc(F)cc1 + CC(Nc1ccc2c(c1)OCCn1cc(N3C(=O)OCC3C(F)F)nc1-2)C(N)=O
inactive: viability, T/C (second compound 0.00316 µM, first compound 0.000316 µM) 86.6% | viability, T/C (second compound 0.00316 µM, first compound 0.001 µM) 109% | viability, T/C (second compound 0.00316 µM, first compound 0.00316 µM) 70% | viability, T/C (second compound 0.00316 µM, first compound 0.01 µM) 105% | viability, T/C [1] 84.3% | viability, T/C [2] 63.4% | viability, T/C (second compound 0.01 µM, first compound 0.000316 µM) 77.7% | viability, T/C (second compound 0.01 µM, first compound 0.001 µM) 111% | viability, T/C (second compound 0.01 µM, first compound 0.00316 µM) 88.3% | viability, T/C (second compound 0.01 µM, first compound 0.01 µM) 92.1% | viability, T/C [3] 97% | viability, T/C [4] 48.7% | viability, T/C (second compound 0.0316 µM, first compound 0.000316 µM) 92.6% | viability, T/C (second compound 0.0316 µM, first compound 0.001 µM) 81.9% | viability, T/C (second compound 0.0316 µM, first compound 0.00316 µM) 63.6% | viability, T/C (second compound 0.0316 µM, first compound 0.01 µM) 73.4% | viability, T/C [5] 83.8% | viability, T/C [6] 61.7% | viability, T/C (second compound 0.1 µM, first compound 0.000316 µM) 97.5% | viability, T/C (second compound 0.1 µM, first compound 0.001 µM) 92.3% | viability, T/C (second compound 0.1 µM, first compound 0.00316 µM) 83.3% | viability, T/C (second compound 0.1 µM, first compound 0.01 µM) 72.8% | viability, T/C [7] 87.9% | viability, T/C [8] 66.3% | viability, T/C (second compound 0.316 µM, first compound 0.000316 µM) 71.9% | viability, T/C (second compound 0.316 µM, first compound 0.001 µM) 94.2% | viability, T/C (second compound 0.316 µM, first compound 0.00316 µM) 75% | viability, T/C (second compound 0.316 µM, first compound 0.01 µM) 70.8% | viability, T/C [9] 60.2% | viability, T/C [10] 58.3% | viability, T/C (second compound 1 µM, first compound 0.000316 µM) 72.2% | viability, T/C (second compound 1 µM, first compound 0.001 µM) 58.1% | viability, T/C (second compound 1 µM, first compound 0.00316 µM) 58.3% | viability, T/C (second compound 1 µM, first compound 0.01 µM) 58.2% | viability, T/C [11] 52.1% | viability, T/C [12] 33%
26.9 nM: IC50 (second compound 1 µM)
96.6 nM: IC50 (second compound 0.01 µM)
> 100 nM: IC50 (second compound 0.00316 µM) | IC50 (second compound 0.0316 µM) | IC50 (second compound 0.1 µM) | IC50 (second compound 0.316 µM)
